The results in this text go back to US11040052B2, “Methods and pharmaceutical compositions for modulating autophagy in a subject in need thereof” (INSERM (INSTITUT NATIONAL DE LA SANTE ET DE LA RECHERCHE …, priority 2013, dated 2021).

“Also recorded” adds a separate entry of the source. Where two headings read alike, the source gives them in different places.

The subject of assay [1] is autophagy in mice tissues. Nature of the assay: Autophagy induction in tissues of fed mice (LC3 lipidation, p62, GFP-LC3 dots). In kind it is in vivo. The method, then:
(§1) C57BL/6 mice (Charles River Laboratory, Lentilly, France) were bred and maintained according to both the FELASA and the Animal Experimental Ethics Committee Guidelines (Val de Marne, France). Mice were housed in a temperature-controlled environment with 12 h light/dark cycles and received food and water ad libitum. For HC-related experiments, mice were injected intraperitoneally with a single 100 mg/kg dose and 6 h later were sacrificed and tissues were immediately frozen in liquid nitrogen. For DCA- and DMKG-related experiments, mice were subjected to 24 h starvation and injected intraperitoneally each 8 h with a 100 mg/kg of either DCA or DMKG solution prepared in PBS. After 24 h of starvation, mice were sacrificed and tissues were immediately frozen in liquid nitrogen after extraction and homogenized two cycles for 20 s at 5,500 rpm using Precellys 24 tissue homogenator (Bertin Technologies, Montigny-le-Bretonneux, France) in a 20 mM Tris buffer (pH 7.4) containing 150 mM NaCl, 1% Triton X-100, 10 mM EDTA and Complete® protease inhibitor cocktail (Roche Applied Science). Tissue extracts were then centrifuged at 12,000 g at 4° C. and supernatants were collected. Protein concentration in the supernatants was evaluated by the bicinchoninic acid technique (BCA protein assay kit, Pierce Biotechnology, Rockford, Ill.). For hydroxycitrate-related weight-loss experiments, autophagy-deficient Atg4b^−/− mice were used. Atg4b^−/− mice have been previously described (Mariño et al., 2010). For HC-, spermidine-, and resveratrol-related experiments (tumour growth) mice were intraperitoneally injected with respectively 100 mg/kg, 50 mg/kg and 100 mg/kg doses at day 8 and day 9. At day 9, mice were intraperitoneally injected with 2 mg/kg single dose of Mitoxanthrone. For starvation related experiment (tumour growth) mice were treated as previously described (Fabrizio et. al., 2010).
To avoid post-mortem autophagy induction, dead mice were immediately perfused with 4% paraformaldehyde (w:v in PBS, pH 7.4). Tissues were then harvested and further fixed with the same solution for at least 4 h, followed by treatment with 15% sucrose (w:v in PBS) for 4 h and with 30% sucrose (w:v in PBS) overnight. Tissue samples were embedded in Tissue-Tek OCT compound (Sakura Finetechnical Co. Ltd., Tokyo, Japan) and stored at −70° C. Five μm-thick tissue sections were prepared with a CM3050 S cryostat (Leica Microsystems GmbH, Wetzlar, Germany), air-dried for 1 h, washed in PBS for 5 min, dried at RT for 30 min, and mounted with VECTASHIELD anti-fading medium. In each organ, the number of GFP-LC3 dots was counted in five independent visual fields from at least five mice using a TCS SP2 confocal fluorescence microscope (Leica Microsystems GmbH).
Six weeks old female C57BL/6, Balb/c and nude athymic mice (Harlan Laboratory, Gannat, France) were bred and maintained according to both the FELASA and the Animal Experimental Inserm Ethics Committee Guidelines (project: 2012-69). Mice were housed in a temperature-controlled environment with 12 h light/dark cycles and received food and water ad libitum. For tumor growth experiments, procedures adopted are described as follows: 3×10^5 tumor cells were subcutaneously inoculated; when tumors became palpable (day −1 before chemotherapy), mice were first intraperitoneally injected with 100 mg/kg Potassium Hydroxycitrate, 10 mg/kg Acetylsalicylic Acid, 30 mg/kg SB204990, 30 mg/kg c646, 5 mg/kg Rapamycin, 25 mg/kg Resveratrol, 50 mg/kg Spermidine. At day 0, mice were intraperitoneally injected with the abovementioned compounds and with 5.17 mg/Kg Mitoxanthrone or 5 mg/kg Oxaliplatin. Tumor size was measured every two days. For starvation experiments, mice underwent 48 hour fasting followed by intreperitoneal injection of chemotherapeutics. […]

Assay [2] has as its system MCA205 tumor. Kind of assay: Growth of transplantable tumors with chemotherapy. The settings on record: for tumor growth, combined with oxaliplatin: data not shown; for tumor growth, combined with MTX: immunocompetent wild type mice, agent given before and with mitoxanthrone; for tumor growth, combined with MTX, immunodeficient mice: nu/nu (nude athymic) mice. In kind it is in vivo, mice. How it is done:
as §1
Six weeks old female C57BL/6, Balb/c and nude athymic mice (Harlan Laboratory, Gannat, France) were bred and maintained according to both the FELASA and the Animal Experimental Inserm Ethics Committee Guidelines (project: 2012-69). Mice were housed in a temperature-controlled environment with 12 h light/dark cycles and received food and water ad libitum. For tumor growth experiments, procedures adopted are described as follows: 3×10^5 tumor cells were subcutaneously inoculated; when tumors became palpable (day −1 before chemotherapy), mice were first intraperitoneally injected with 100 mg/kg Potassium Hydroxycitrate, 10 mg/kg Acetylsalicylic Acid, 30 mg/kg SB204990, 30 mg/kg c646, 5 mg/kg Rapamycin, 25 mg/kg Resveratrol, 50 mg/kg Spermidine. At day 0, mice were intraperitoneally injected with the abovementioned compounds and with 5.17 mg/Kg Mitoxanthrone or 5 mg/kg Oxaliplatin. Tumor size was measured every two days. For starvation experiments, mice underwent 48 hour fasting followed by intreperitoneal injection of chemotherapeutics. For autophagy induction study, 6 hours after CRMs administration, mice were sacrificed and tissues were snap-frozen in liquid nitrogen after extraction and homogenized two cycles for 20 s at 5,500 rpm using Precellys 24 tissue homogenator (Bertin Technologies, Montigny-le-Bretonneux, France) in a 20 mM Tris buffer (pH 7.4) containing 150 mM NaCl, 1% Triton X-100, 10 mM EDTA and Complete® protease inhibitor cocktail (Roche Applied Science, Penzberg, Germany). Tissue extracts were then centrifuged at 12,000 g at 4° C. and supernatants were collected. Protein concentration in the supernatants was evaluated by the bicinchoninic acid technique (BCA protein assay kit, Pierce Biotechnology, Rockford, US.

Assay [3] relates to AMPK, mTORC1. Nature of the assay: Immunoblot of AMPK phosphorylation and mTORC1 activity (p70s6k phosphorylation). To be noted: nutrient-depleted (starved) cells in vitro. In kind it is cell-based, human. How it is done: For immunoblotting, 25 μg of proteins were then separated on 4-12% Bis-Tris acrylamide (Invitrogen) or 12% Tris-Glycine SDS-PAGE precast gels (Biorad, Hercules, USA) and electrotransferred to ImmobilonTM membranes (Millipore Corporation, Billerica, USA). Membranes were then sliced in different parts according to the molecular weight of the protein of interest to allow simultaneous detection of different antigens within the same experiment. […] Development was performed with appropriate horseradish peroxidase (HRP)-labeled secondary antibodies (Southern Biotech, Birmingham, USA) plus the SuperSignal West Pico chemoluminescent substrate (Thermo Scientific-Pierce). An anti-glyceraldehyde-3-phosphate dehydrogenase antibody (Chemicon International, Temecula, USA) was used to control equal loading of lanes.
Background: Immunoblotting shows a protein as a band on a membrane.

Regarding `O=C(O)CC(O)(C(=O)O)C(O)C(=O)O` (stereo not shown) [HC, hydroxycitrate], the “autophagy in vivo (LC3 lipidation, p62, GFP-LC3)” value in assay [1] is “induced an increase in autophagic flux in vivo; also recorded: strongly stimulated autophagy both in vitro and in vivo; also recorded: triggered a systemic autophagic response comparable to that induced by starvation; also recorded: similarly efficient as a starvation period of 48 h”; in assay [1] (listed as Hydroxycitrate) it was “elicits autophagy in mice muscle after 6 hours”; in assay [1] (listed as hydroxycitrate) it was “triggered a systemic autophagic response comparable to that induced by starvation”. The “tumor growth, combined with MTX, autophagy-deficient tumors” value in assay [2] (MCA205 cells with Atg5 or Atg7 shRNA) was “tumor growth control is lost; also recorded: largely therapy-resistant”. Also, the “tumor growth, combined with oxaliplatin” value in assay [2] is given as “caused superior tumor growth reduction, but only in WT, not in nu/nu mice”; in assay [2] (listed as hydroxycitrate) it was “improved the therapeutic outcome of treatments with MTX (FIG. 8G) or oxaliplatin”. Further, the “tumor growth, combined with MTX” value in assay [2] is “mimics the effects of 48 h fasting in delaying subcutaneous MCA205 tumor growth; also recorded: improves the efficacy of chemotherapy and significantly reduces tumor growth of MCA205 cells in wild type; also recorded: similarly improved tumor growth reduction by MTX; also recorded: more efficient than monotherapy with MTX”; in assay [2] (listed as hydroxycitrate) it was “enhanced the tumor growth-inhibitory effect of chemotherapy as efficiently as did starvation; also recorded: improved the therapeutic outcome of treatments with MTX”. In addition, in assay [2], the “tumor growth, combined with MTX, immunodeficient mice” value is “not in immunodeficient nu/nu mice”. In addition, the “tumor growth, combined with MTX, CD39-expressing tumors” value in assay [2] (tumors engineered to express the ecto-ATPase CD39, data not shown) is listed as “lost its therapeutic efficacy”.

On to `CC(C)CC(=O)C(=O)O` [KIC, ketoisocaproic acid], for which the “AMPK phosphorylation and mTORC1 activity in starved cells” value in assay [3] is “inhibition of AMPK phosphorylation and reversion of mTORC1 dephosphorylation; also recorded: prevented starvation-associated mTORC1 inhibition and AMPK activation”.

On to `O=C(O)CCCCC1CCSS1` (stereo not shown) [LA, lipoic acid], for which the “AMPK phosphorylation and mTORC1 activity in starved cells” value in assay [3] is “blunted starvation-induced mTORC1 inhibition, AMPK activation”.

On to `CC1=NN(c2ccc(C(=O)O)cc2)C(=O)/C1=C\c1ccc(-c2cc(C)c(C)cc2[N+](=O)[O-])o1` [c646], for which the “autophagy in vivo (LC3 lipidation, p62, GFP-LC3)” value in assay [1] is “elicits autophagy in mice muscle after 6 hours; also recorded: induced autophagy both in vitro, in cultured cells, and in vivo, in mice”. In assay [2], the “tumor growth, combined with MTX” value was “can enhance chemotherapy efficacy” and the “tumor growth, combined with MTX, immunodeficient mice” value is listed as “failed”. Besides, in assay [2] (listed as C646), the “tumor growth, combined with MTX” value is reported as “HC could be replaced”.
